In the supplement of paper PMC10331698:
± gives the standard deviation of the averaged measurements.

Tests used:
Experiment in all cases: level (log10 ratio to DMSO vehicle control); higher = higher biomarker level / cell amount than vehicle control
[1] = compound: C=C(C)C(=O)OCCC(F)(F)C(F)(F)C(F)(F)C(F)(F)C(F)(F)C(F)(F)F [6:2 Fluorotelomer methacrylate]; conditions: in DMSO
Protocol: (§1)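 BioMAP Diversity Plus panel of 12 human primary cell co-culture systems (3C, 4H, LPS, SAg, BT, BF4T, BE3C, CASM3C, HDF3CGF, KF3CT, MyoF, Mphg). Compounds were added 1 h before stimulation and left for 24 h (MyoF 48 h; BT 72 h for soluble read-outs or 6 d for IgG). Biomarkers were read by ELISA, cytotoxicity by SRB, PBMC viability and proliferation by Alamar Blue. Each well value was divided by the mean of 8 DMSO control wells on the same plate and log10 transformed; duplicate blinded samples were tested at 4 concentrations.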

[2] = compound: C=CC(=O)OCC(F)(F)C(F)(F)C(F)(F)COC(=O)C=C [1H,1H,5H,5H-Perfluoro-1,5-pentanediol diacrylate]; conditions: 6700 nM; in DMSO
Protocol: as §1

[3] = compound: FC(F)(F)C(F)(F)C(F)(F)C(F)(F)C(F)(F)C(F)(F)C(F)(F)I [1-Iodopentadecafluoroheptane]; conditions: in DMSO
Protocol: as §1

[4] = compound: FC(F)(F)C(F)(F)C(F)(F)CC1CO1 [1H,1H-Heptafluorobutyl epoxide]; conditions: in DMSO
Protocol: as §1

[5] = compound: NC(=O)C(F)(F)C(F)(F)C(F)(F)C(F)(F)C(N)=O [Octafluoroadipamide]; conditions: in DMSO
Protocol: as §1

[6] = compound: NS(=O)(=O)C(F)(F)C(F)(F)C(F)(F)C(F)(F)C(F)(F)C(F)(F)F [Perfluorohexanesulfonamide]; conditions: in DMSO
Protocol: as §1

## SAg:Proliferation
[1]; 6700 nM
  level (log10): -0.027 ± 0.034
[1]; 20000 nM
  level (log10): -0.0435 ± 0.042
[1]; 60000 nM
  level (log10): -0.0375 ± 0.03
[2]
  level (log10): -0.421 ± 0.035
[3]; 6700 nM
  level (log10): 0.0055 ± 0.043
[3]; 20000 nM
  level (log10): -0.0105 ± 0.026
[4]; 6700 nM
  level (log10): -0.0295 ± 0.059
[4]; 20000 nM
  level (log10): 0.017 ± 0.059
[4]; 60000 nM
  level (log10): 0.055 ± 0.054
[5]; 6700 nM
  level (log10): 0.022 ± 0.035
[5]; 20000 nM
  level (log10): -0.0255 ± 0.005
[5]; 60000 nM
  level (log10): 0.033 ± 0.0099
[6]; 6700 nM
  level (log10): 0.0045 ± 0.0035
[6]; 20000 nM
  level (log10): -0.016 ± 0.013
[6]; 60000 nM
  level (log10): -0.0695 ± 0.019

## SAg:SRB
[1]; 6700 nM
  level (log10): 0 ± 0.0057
[1]; 20000 nM
  level (log10): -0.003 ± 0.0042
[1]; 60000 nM
  level (log10): -0.005 ± 0.0071
[2]
  level (log10): -0.0015 ± 0.012
[3]; 6700 nM
  level (log10): -0.007 ± 0.0042
[3]; 20000 nM
  level (log10): 0.0025 ± 0.0021
[4]; 6700 nM
  level (log10): 0.0065 ± 0.026
[4]; 20000 nM
  level (log10): -0.0065 ± 0.0092
[4]; 60000 nM
  level (log10): -0.0115 ± 0.011
[5]; 6700 nM
  level (log10): -0.011 ± 0.014
[5]; 20000 nM
  level (log10): -0.0065 ± 0.022
[5]; 60000 nM
  level (log10): -0.0025 ± 0.0064
[6]; 6700 nM
  level (log10): -0.003 ± 0.0028
[6]; 20000 nM
  level (log10): -0.001 ± 0.0028
[6]; 60000 nM
  level (log10): -0.094 ± 0.021
